Source: patent US11072592B2, “Small molecules that enable cartilage rejuvenation” (The Regents of the University of California, priority 2015, dated 2021)
Entries after “also recorded” stand apart in the source; their conditions may differ.

Key:
[1] = system: pSTAT3 and MYC; assay: Western blot of pSTAT3 and MYC in adult human articular chondrocytes; type: cell-based; details: for levels of MYC / levels of pSTAT3: adult human articular cartilage/chondrocytes, treated vs untreated, relative to histone H3
Source text: (§1) Only early passages of chondrocytes (passage 0-2) were used for experimentation to avoid de-differentiation and loss of cartilage phenotype (Wu et al., 2014). Cartilage explants were made using 1, 2 or 8 mm biopsy punch and wet weight of each explant determined prior to experimentation. For cell isolation cartilage tissue was digested as described previously (Wu et al., 2015). Postnatal paraffin embedded joint and growth plate specimens were kindly donated by Dr Marcel Karperien from the University of Twente (Netherlands) and Dr Nick Bernthal from University of California Los Angeles. All donated material was anonymous and carried no personal identifiers. Cell culture reagents were purchased from Life Technologies, Inc. (Grand Island, N.Y.). Growth factors LIF, OSM, IL-6, TNF-α, IL-1β were purchased from Life Technologies, Inc (Grand Island, N.Y.). STATTIC, 10058-F4, SCl44 hydrochloride, and CP-690550 were purchased from Sigma Aldrich (St. Louis, Mo.). RCGD 423 (N-(4-Bromophenyl)-4-phenyl-1,3-thiazol-2-amine) was synthesized and provided by MolPort (Riga, Latvia). Fetal, adult and pig chondrocytes were cultured in DMEM F12 medium containing 10% (vol/vol) fetal bovine serum and 1% Penicillin-Streptomycin (vol/vol) at 37° C. in a humidified atmosphere of 95% aid and 5% CO2. Media was replenished with DMEM F12 medium containing 1% (vol/vol) fetal bovine serum and 1% Penicillin-Streptomycin (vol/vol) once treatments were added. For 3-dimensional (3D) cell cultures adult human articular chondrocytes were incubated with or without RCGD 423 using 10% solution of Mebiol® hydrogel from Cosmo Bio (Carlsbad, Calif.) in X-vivo 15 serum free medium from Lonza (Walkersville, Md.) as described previously (Wu et al., 2014).
(§2) Treated and non-treated ells were lysed in RIPA Lysis and Extraction Buffer (Pierce, Rockford, Ill.) containing protease inhibitors (Pierce) followed by sonication with a 15-second pulse at a power output of 2 using the VirSonic 100 (SP Industries Company, Warminster, Pa.). Protein concentrations were determined by BCA protein assay (Pierce). Proteins were resolved with SDS-PAGE utilizing 4-15% Mini-PROTEAN TGX Precast Gels and transferred to Trans-Blot Turbo Transfer Packs with a 0.2-μm pore-size nitrocellulose membrane. The SDS-PAGE running buffer, 4-15% Mini-PROTEAN TGX Precast Gels, Trans-Blot Turbo Transfer Packs with a 0.2-μm pore-size nitrocellulose membrane were purchased from Biorad (Hercules, Calif.). Nitrocellulose membranes were blocked in 5% nonfat milk in 0.05% (v/v) Tween 20 (PBST) (Corning, Manassas, Va.). Membranes were then incubated with primary antibodies phospho-STAT3 (#9131), MYC (#5605), NF-κB p65 (#D14E12), pAKT (#9272) Histone 3 (#9715) from Cell Signaling, (Danvers, Mass.); MEK1/2 (ab70613) and p38 (ab795) from Abcam (Cambridge, Mass.) overnight. After washing in PBS containing 0.05% (v/v) Tween 20 (PBST), membranes were incubated with Goat anti-Rabbit IgG (H+L) Secondary Antibody (Thermo Scientific Rockford, Ill.). After washing, membranes were developed with the Clarity Western ECL Blotting Substrate (Hercules, Calif.).

[2] = system: pSTAT3 and MYC; assay: Western blot of pSTAT3 and MYC in adult pig articular chondrocytes; type: cell-based; details: for levels of MYC / levels of pSTAT3: adult pig articular chondrocytes, treated vs untreated, relative to histone H3
Source text: as §1, §2

[3] = system: cartilage explants; assay: Cartilage explant culture: tissue expansion, COL2 and GAG content; type: cell-based, pig; details: for expansion of cartilage tissue in explants: cartilage explants/plugs in culture
Source text: The same stimulatory effect was achieved after treatment of explants with CRMs identified in our small molecule screen. […] This can test if activation of p-STAT3 and c-MYC by selected small molecules CRM-398 and -423 can result in in situ expansion of articular cartilage tissue.
Mature articular cartilage is comprised of chondrocytes contained within lacunae surrounded by dense extracellular matrix. In order for a regenerative response to occur, proliferation, survival and migration must all proceed in concert. […] We designed two sets of experiments to assess the ability of RCGD 423 to operate in this capacity. First, RCGD 423 or cytokines implicated in the growth and differentiation of articular cartilage were incubated with small plugs of cartilage tissue; after 5 weeks, the amount of COL2 and glycosaminoglycans (GAGs) were determined.
Cartilage explants were washed with PBS and then directly digested or stored at […]. For digestion, explants were transferred in digestion buffer composed of 1 mg/mL proteinase K in Tris/Ethylene diamine tetra-acetic acid (EDTA) buffer (pH 7.6) containing 18.5 μg/mL iodoacetamide and 1 μg/mL pepstatin A) for 16-72 h at 56° C. After complete digestion the GAG content was spectrophotometrically determined with 1,9-dimethylmethylene blue chloride staining in the phosphate buffer with ethylene diamine tetra-acetic acid buffer (14.2 g/L Na2HPO4 and 3.72 g/L Na2EDTA, pH 6.5) using an Infinite M1000 Pro microplate reader (Tecan) at an absorbance of 520 nm with chondroitin sulfate as a standard. Amount of total DNA in explants was determined by a CyQuant DNA Kit (Molecular Probes by Life Technology) using Qubit 1.0 fluorometer (Invitrogen).
Cultured explants were first digested in testicular hyaluronidase (0.05% in 50 mM HEPES) for 2 hours at 37° C. 0.5M glacial acetic acid was added to digestion solution to maximize the collagen swelling and provide best pepsin access. Pepsin (250 μg/ml) was then used to further digest the pellets in combination with rotation and occasional gentle vortexing at 4° C. for 18-24 hours. Cold tris base and NaOH were added to the digestion solution to neutralize the acetic acid. Digestion solution was vigorously vortexed immediately, and subsequently rotated at 4° C. overnight to maximize collagen solubility. Tubes were centrifuged to separate undigested tissue and supernatant. Any undigested tissue was subjected to the digestion process again. All supernatants were combined for ELISA. Concentration of collagen II in the supernatant was measured by Type I/II Collagen Detection Kit (Chondrex, Inc, Redmond, Wash.), according to manufacturer's instruction and normalized either to DNA content or wet weight of the explants determined prior to experimentation.

[4] = system: human adult articular chondrocytes; assay: RNA-Seq of human adult articular chondrocytes; type: cell-based; details: n=7
[5] = 48 hours after withdrawal (data not shown)
[6] = human adult articular chondrocytes, 1 μM
[7] = pig adult articular chondrocytes, 1 μM

LIF: interleukin 6 (IL-6)-class cytokine
levels of MYC [1]: large increases; also recorded: robustly increased
levels of pSTAT3 [1]: large increases; also recorded: robustly increased
levels of MYC [2]: increase
levels of pSTAT3 [2]: increase
expansion of cartilage tissue in explants [3]: significant expansion; also recorded: small expansions

Brc1ccc(Nc2nc(-c3ccccc3)cs2)cc1 [RCGD 423, N-(4-Bromophenyl)-4-phenyl-1,3-thiazol-2-amine]
enriched transcripts (increased more than 1.5-fold in 4/7 replicates) [4]: 1,244
specificity and selectivity of effect for p-STAT3 and c-MYC [1]: highly specific and selective
protein level of c-MYC after withdrawal [1, 5]: decreased
protein level of p-STAT-3 after withdrawal [1, 5]: decreased
levels of MYC [1]: robustly increased
levels of pSTAT3 [1]: robustly increased
levels of c-MYC [1, 6]: elevated
levels of p-STAT3 [1, 6]: elevated
levels of MYC [2]: strong increases
levels of pSTAT3 [2]: strong increases
levels of c-MYC [2, 7]: elevated
levels of p-STAT3 [2, 7]: elevated
COL2 ([3]; after 5 weeks): increases
glycosaminoglycans (GAGs) ([3]; after 5 weeks): increases
expansion of cartilage tissue in explants [3]: strong expansion
